# The source made the active and inactive calls. The rule behind the calls is not given here.
# What was measured:
# Erythrocyte = assay: Hemolytic activity in human Red blood cells assessed as concentration required for 5% hemolysis measured after 1.5 hrs by absorbance based assay; type: toxicity, cell-based
# Pseudomonas aeruginosa [1] = assay: Antibacterial activity against Pseudomonas aeruginosa clinical isolate assessed as inhibition of bacterial growth incubated for 24 hrs; type: functional
# Klebsiella pneumoniae = assay: Antibacterial activity against Klebsiella pneumoniae clinical isolate assessed as inhibition of bacterial growth incubated for 24 hrs; type: functional
# Staphylococcus aureus [2] = assay: Antibacterial activity against methicillin-resistant Staphylococcus aureus ATCC 43300 assessed as inhibition of bacterial growth incubated for 24 hrs; type: functional
# [3] = Cytotoxicity against human normal Squamous epithelial cell (NOK) assessed as inhibition of cell growth measured after 24 hrs by MTT assay; type: toxicity, cell-based; conditions: normal squamous epithelial cells (NOK)
# Calf thymus DNA [4] = assay: Binding affinity to calf thymus DNA assessed as DNA-compound complex formation by measuring hypochromism at 0 to 2.3 x 10^-8mol/L by UV absorption spectra based analysis; type: nucleic-acid assay; conditions: Bos taurus; dose 0-2.3 10^-8mol/L
# [5] = Cytotoxicity against human FHC assessed as inhibition of cell growth measured after 24 hrs by MTT assay; type: toxicity, cell-based; conditions: FHC cells
# Staphylococcus aureus [6] = assay: Resistance development in methicillin resistant Staphylococcus aureus assessed as increase in MIC measured after 20 days; type: functional, organism-based; conditions: time 20.0 day
# Staphylococcus aureus [7] = assay: Antibacterial activity against Staphylococcus aureus ATCC 12600 assessed as inhibition of bacterial growth incubated for 24 hrs; type: functional
# [8] = Cytotoxicity against human FHC assessed as cell viability at 20 ug/ml measured after 24 hrs by MTT assay relative to control; type: toxicity, cell-based; conditions: FHC cells, at 20 µg/mL, read-out: Activity
# Escherichia coli [9] = assay: Antibacterial activity against Escherichia coli ATCC 25922 assessed as inhibition of bacterial growth incubated for 24 hrs; type: functional
# [10] = Cytotoxicity against HUVEC cells assessed as cell viability at 25 ug/ml measured after 24 hrs by MTT assay relative to control; type: toxicity, cell-based; conditions: human, at 25 µg/mL, read-out: Activity
# Staphylococcus aureus [11] = assay: Antibacterial activity against Staphylococcus aureus clinical isolate assessed as inhibition of bacterial growth incubated for 24 hrs; type: functional
# Calf thymus DNA [12] = assay: Binding affinity to calf thymus DNA assessed as DNA-compound complex formation by measuring increase in absorption of DNA at 260 nm at 0 to 2.3 x 10^-8mol/L by UV absorption spectra based analysis; type: nucleic-acid assay; conditions: Bos taurus; dose 0-2.3 10^-8mol/L
# Escherichia coli [13] = assay: Antibacterial activity against Escherichia coli clinical isolate assessed as inhibition of bacterial growth incubated for 24 hrs; type: functional
# [14] = tested on: Staphylococcus epidermidis; assay: Antibacterial activity against Staphylococcus epidermidis ATCC 12228 assessed as inhibition of bacterial growth incubated for 24 hrs; type: functional
# Staphylococcus aureus [15] = assay: Antibacterial activity against Staphylococcus aureus ATCC 6538 assessed as inhibition of bacterial growth incubated for 24 hrs; type: functional
# Staphylococcus aureus [16] = assay: Antibacterial activity against Staphylococcus aureus CMCC(B)26003 assessed as inhibition of bacterial growth incubated for 24 hrs; type: functional
# Enterococcus faecium = assay: Antibacterial activity against Enterococcus faecium ATCC 19434 assessed as inhibition of bacterial growth incubated for 24 hrs; type: functional
# Acinetobacter baumannii = assay: Antibacterial activity against Acinetobacter baumannii clinical isolate assessed as inhibition of bacterial growth incubated for 24 hrs; type: functional
# Calf thymus DNA [17] = assay: Competitive binding affinity to calf thymus DNA assessed as displacement of neutral red from DNA-neutral red complex by measuring reduction in absorbance at 540 nm at 0 to 2.1x10^-8 mol/L by UV absorption spectroscopy; type: nucleic-acid assay; conditions: Bos taurus; dose 0-2.1 10^-8mol/L
# Streptococcus pyogenes [18] = assay: Antibacterial activity against Streptococcus pyogenes ATCC 19615 assessed as inhibition of bacterial growth incubated for 24 hrs; type: functional
# Pseudomonas aeruginosa [19] = assay: Antibacterial activity against Pseudomonas aeruginosa ATCC 27853 assessed as inhibition of bacterial growth incubated for 24 hrs; type: functional
# Enterococcus faecalis [20] = assay: Antibacterial activity against vancomycin-resistant Enterococcus faecalis clinical isolate p1-2007225053 assessed as inhibition of bacterial growth incubated for 24 hrs; type: functional
# [21] = Hemolytic activity in human Red blood cells at 32 ug/ml measured after 1.5 hrs by absorbance based assay relative to control; type: toxicity, cell-based, Erythrocyte; conditions: red blood cells (erythrocytes), at 32 µg/mL, read-out: Activity
# Pseudomonas aeruginosa [22] = assay: Resistance development in Pseudomonas aeruginosa assessed as increase in MIC measured after 20 days; type: functional, organism-based; conditions: time 20.0 day
# Staphylococcus aureus [23] = assay: Antibacterial activity against Staphylococcus aureus CMCC(B)26001 assessed as inhibition of bacterial growth incubated for 24 hrs; type: functional
# Streptococcus pneumoniae = assay: Antibacterial activity against Streptococcus pneumoniae ATCC 6305 assessed as inhibition of bacterial growth incubated for 24 hrs; type: functional
# L02 = assay: Cytotoxicity against human L02 cells assessed as reduction in cell viability at 0.78 to 25 ug/ml measured after 24 hrs by MTT assay; type: toxicity, cell-based; conditions: l02, 24 h, dose 0.78-25 µg/ml
# Streptococcus pyogenes [24] = assay: Potency index, ratio of ciprofloxacin MIC to test compound MIC for antibacterial activity against Streptococcus pyogenes ATCC 19615 assessed as inhibition of bacterial growth incubated for 24 hrs; type: functional
# Streptococcus pyogenes [25] = assay: Potency index, ratio of norfloxacin MIC to test compound MIC for antibacterial activity against Streptococcus pyogenes ATCC 19615 assessed as inhibition of bacterial growth incubated for 24 hrs; type: functional
# Enterococcus faecalis [26] = assay: Antibacterial activity against Enterococcus faecalis clinical isolate assessed as inhibition of bacterial growth incubated for 24 hrs; type: functional
# Staphylococcus aureus [27] = assay: Antibacterial activity against methicillin resistant Staphylococcus aureus clinical isolate assessed as inhibition of bacterial growth incubated for 24 hrs; type: functional
# Staphylococcus aureus [28] = assay: Antibacterial activity against Staphylococcus aureus ATCC 25923 assessed as inhibition of bacterial growth incubated for 24 hrs; type: functional
# Calf thymus DNA [29] = assay: Binding affinity to calf thymus DNA assessed as disruption of DNA confirmation by measuring blue shift at 0 to 2.3 x 10^-8mol/L by UV absorption spectra based analysis; type: nucleic-acid assay; conditions: Bos taurus; dose 0-2.3 10^-8mol/L
# HUVEC = assay: Cytotoxicity against HUVEC cells assessed as reduction in cell viability at 0.78 to 25 ug/ml measured after 24 hrs by MTT assay; type: toxicity, cell-based; conditions: human, dose 0.78-25 µg/ml
# Staphylococcus aureus [30] = assay: Antibacterial activity against Staphylococcus aureus ATCC 29213 assessed as inhibition of bacterial growth incubated for 24 hrs; type: functional
# Enterococcus faecalis [31] = assay: Antibacterial activity against vancomycin-resistant Enterococcus faecalis clinical isolate p1-2007226001 assessed as inhibition of bacterial growth incubated for 24 hrs; type: functional
# Pseudomonas aeruginosa [32] = assay: Resistance development in Pseudomonas aeruginosa assessed as fold increase in MIC measured after 20 days relative to control; type: functional; conditions: time 20 day
# Staphylococcus aureus [33] = assay: Resistance development in methicillin resistant Staphylococcus aureus assessed as fold increase in MIC measured after 20 days relative to control; type: functional; conditions: time 20 day
compound,measurement,setting,value
N#CCc1cc2c(cc1F)c(=O)c(C(=O)O)cn2Cc1ccccc1Cl,HC5,Erythrocyte,64 µg/mL
same,MIC,Pseudomonas aeruginosa [1],0.25 µg/mL
same,MIC,Klebsiella pneumoniae,2 µg/mL
same,MIC,Staphylococcus aureus [2],4 µg/mL
same,IC50 at 24 h,[3],1.38 µg/mL
same,Activity,Calf thymus DNA [4],Active
same,IC50 at 24 h,[5],141 µg/mL
same,Activity,Staphylococcus aureus [6],inactive
same,MIC,Staphylococcus aureus [7],128 µg/mL
same,"viability at 24 h, 20 ug/ml",[8],> 80%
same,MIC,Escherichia coli [9],0.25 µg/mL
same,"viability at 24 h, 25 ug/ml",[10],> 90%
same,MIC,Staphylococcus aureus [11],256 µg/mL
same,Activity,Calf thymus DNA [12],Active
same,MIC,Escherichia coli [13],0.25 µg/mL
same,MIC,[14],0.25 µg/mL
same,MIC,Staphylococcus aureus [15],4 µg/mL
same,MIC,Staphylococcus aureus [16],0.125 µg/mL
same,MIC,Enterococcus faecium,4 µg/mL
same,MIC,Acinetobacter baumannii,0.5 µg/mL
same,Activity,Calf thymus DNA [17],Active
same,MIC,Streptococcus pyogenes [18],0.25 µg/mL
same,MIC,Pseudomonas aeruginosa [19],0.5 µg/mL
same,MIC,Enterococcus faecalis [20],128 µg/mL
same,"hemolysis at 1.5 h, 32 ug/ml",[21],4%
same,Activity,Pseudomonas aeruginosa [22],inactive
same,MIC,Staphylococcus aureus [23],0.25 µg/mL
same,MIC,Streptococcus pneumoniae,16 µg/mL
same,Activity,L02,Non-Toxic
same,Ratio,Streptococcus pyogenes [24],64
same,Ratio,Streptococcus pyogenes [25],128
same,MIC,Enterococcus faecalis [26],256 µg/mL
same,MIC,Staphylococcus aureus [27],256 µg/mL
same,MIC,Staphylococcus aureus [28],0.25 µg/mL
same,Activity,Calf thymus DNA [29],Active
same,Activity,HUVEC,Non-Toxic
same,MIC,Staphylococcus aureus [30],0.25 µg/mL
same,MIC,Enterococcus faecalis [31],64 µg/mL
NC1CCN(c2c(F)cc3c(=O)c(C(=O)O)cn(C4CC4)c3c2Cl)C1 (stereo unspecified) [CLINAFLOXACIN],MIC,Pseudomonas aeruginosa [1],0.5 µg/mL
same,MIC,Klebsiella pneumoniae,0.5 µg/mL
same,fold change (FC),Pseudomonas aeruginosa [32],16
same,MIC,Escherichia coli [9],0.25 µg/mL
same,MIC,Staphylococcus aureus [11],0.5 µg/mL
same,MIC,Escherichia coli [13],0.25 µg/mL
same,fold change (FC),Staphylococcus aureus [33],8
same,MIC,Acinetobacter baumannii,0.5 µg/mL
same,MIC,Pseudomonas aeruginosa [19],0.5 µg/mL
same,MIC,Enterococcus faecalis [26],4 µg/mL
same,MIC,Staphylococcus aureus [27],1 µg/mL
same,MIC,Staphylococcus aureus [28],0.5 µg/mL
same,MIC,Staphylococcus aureus [30],0.5 µg/mL

# From ChEMBL document CHEMBL5506059, “Cyanomethylquinolones as a New Class of Potential Multitargeting Broad-Spectrum Antibacterial Agents” (J Med Chem, 2024)
